Assay results reported in US9446039B2, “Aminoheteroaryl compounds as MTH1 inhibitors” (CEMM—FORSCHUNGSZENTRUM FÜR MOLEKULARE MEDIZIN GMBH, priority 2012, dated 2016).

Columns and labels:
Type in all cases: binding
[1] = biological target: SW480 colon carcinoma cells lysate proteins (Homo sapiens, UniProt P10412); conditions: PreyGene HIST1H1E
[2] = biological target: T1, SW480 colon carcinoma cells lysate proteins (Homo sapiens, UniProt P53618); conditions: PreyGene COPB1
T1 sequence (P53618 1-953): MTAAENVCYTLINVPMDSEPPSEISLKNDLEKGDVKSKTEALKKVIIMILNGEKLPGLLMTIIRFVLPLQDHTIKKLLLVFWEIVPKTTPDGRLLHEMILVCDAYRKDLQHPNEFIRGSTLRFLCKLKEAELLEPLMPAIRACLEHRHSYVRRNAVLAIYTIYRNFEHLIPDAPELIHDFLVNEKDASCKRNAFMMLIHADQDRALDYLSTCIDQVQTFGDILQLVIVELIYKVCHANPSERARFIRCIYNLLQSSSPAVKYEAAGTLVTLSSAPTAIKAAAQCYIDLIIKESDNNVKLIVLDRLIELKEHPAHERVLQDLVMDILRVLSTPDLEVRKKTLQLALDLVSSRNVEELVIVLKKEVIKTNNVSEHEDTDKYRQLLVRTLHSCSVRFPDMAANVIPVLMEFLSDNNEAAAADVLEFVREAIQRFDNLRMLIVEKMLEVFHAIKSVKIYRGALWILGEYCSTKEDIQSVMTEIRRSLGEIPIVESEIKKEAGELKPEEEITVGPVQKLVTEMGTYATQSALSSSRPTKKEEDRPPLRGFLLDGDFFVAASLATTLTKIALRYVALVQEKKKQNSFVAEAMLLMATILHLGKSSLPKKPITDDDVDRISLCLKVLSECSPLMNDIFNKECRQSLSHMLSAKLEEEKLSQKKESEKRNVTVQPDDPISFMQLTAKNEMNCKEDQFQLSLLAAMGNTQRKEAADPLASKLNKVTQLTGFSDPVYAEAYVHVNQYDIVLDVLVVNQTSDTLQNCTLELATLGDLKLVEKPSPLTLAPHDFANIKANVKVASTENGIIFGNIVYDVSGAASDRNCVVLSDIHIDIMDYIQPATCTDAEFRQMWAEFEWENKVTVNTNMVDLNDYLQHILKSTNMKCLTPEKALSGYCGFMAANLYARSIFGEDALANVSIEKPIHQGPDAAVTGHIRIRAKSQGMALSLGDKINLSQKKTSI

[3] = biological target: SW480 colon carcinoma cells lysate proteins (Homo sapiens, UniProt Q13576); conditions: PreyGene IQGAP2
[4] = biological target: SW480 colon carcinoma cells lysate proteins (Homo sapiens, UniProt Q14240); conditions: PreyGene EIF4A2; SW480 cells
[5] = biological target: SW480 colon carcinoma cells lysate proteins (Homo sapiens, UniProt Q14315); conditions: PreyGene FLNC; SW480 cells
[6] = biological target: T2, SW480 colon carcinoma cells lysate proteins (Homo sapiens, UniProt Q15293); conditions: PreyGene RCN1
T2 sequence (Q15293 30-331): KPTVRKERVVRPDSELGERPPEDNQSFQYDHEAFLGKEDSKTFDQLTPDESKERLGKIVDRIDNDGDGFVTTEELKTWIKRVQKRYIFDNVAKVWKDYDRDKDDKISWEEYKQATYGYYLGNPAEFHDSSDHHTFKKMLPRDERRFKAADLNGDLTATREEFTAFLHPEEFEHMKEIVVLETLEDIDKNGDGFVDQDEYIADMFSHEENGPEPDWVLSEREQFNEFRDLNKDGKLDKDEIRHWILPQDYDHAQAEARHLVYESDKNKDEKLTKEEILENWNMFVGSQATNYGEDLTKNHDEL

[7] = biological target: SW480 colon carcinoma cells lysate proteins (Homo sapiens, UniProt Q16555); conditions: PreyGene DPYSL2
[8] = biological target: T3, SW480 colon carcinoma cells lysate proteins (Homo sapiens, UniProt Q7RTS7); conditions: PreyGene KRT74; SW480 cells
T3 sequence (Q7RTS7 1-529): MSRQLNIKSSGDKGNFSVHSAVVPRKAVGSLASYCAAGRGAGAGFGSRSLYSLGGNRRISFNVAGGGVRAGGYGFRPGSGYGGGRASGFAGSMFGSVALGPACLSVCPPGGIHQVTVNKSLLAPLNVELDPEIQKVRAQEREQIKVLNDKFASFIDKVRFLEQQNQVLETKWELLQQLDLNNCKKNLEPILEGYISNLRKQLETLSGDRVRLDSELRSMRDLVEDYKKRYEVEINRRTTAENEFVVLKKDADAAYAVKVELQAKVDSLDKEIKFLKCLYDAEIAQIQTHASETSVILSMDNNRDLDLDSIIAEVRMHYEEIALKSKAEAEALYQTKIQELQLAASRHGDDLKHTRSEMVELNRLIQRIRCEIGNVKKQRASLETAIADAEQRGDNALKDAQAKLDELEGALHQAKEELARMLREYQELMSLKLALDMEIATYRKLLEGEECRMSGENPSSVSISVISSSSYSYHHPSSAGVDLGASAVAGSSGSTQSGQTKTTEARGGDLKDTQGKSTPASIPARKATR

Chain of SW480 colon carcinoma cells lysate proteins (Homo sapiens, UniProt Q13576) (Q13576 whole entry): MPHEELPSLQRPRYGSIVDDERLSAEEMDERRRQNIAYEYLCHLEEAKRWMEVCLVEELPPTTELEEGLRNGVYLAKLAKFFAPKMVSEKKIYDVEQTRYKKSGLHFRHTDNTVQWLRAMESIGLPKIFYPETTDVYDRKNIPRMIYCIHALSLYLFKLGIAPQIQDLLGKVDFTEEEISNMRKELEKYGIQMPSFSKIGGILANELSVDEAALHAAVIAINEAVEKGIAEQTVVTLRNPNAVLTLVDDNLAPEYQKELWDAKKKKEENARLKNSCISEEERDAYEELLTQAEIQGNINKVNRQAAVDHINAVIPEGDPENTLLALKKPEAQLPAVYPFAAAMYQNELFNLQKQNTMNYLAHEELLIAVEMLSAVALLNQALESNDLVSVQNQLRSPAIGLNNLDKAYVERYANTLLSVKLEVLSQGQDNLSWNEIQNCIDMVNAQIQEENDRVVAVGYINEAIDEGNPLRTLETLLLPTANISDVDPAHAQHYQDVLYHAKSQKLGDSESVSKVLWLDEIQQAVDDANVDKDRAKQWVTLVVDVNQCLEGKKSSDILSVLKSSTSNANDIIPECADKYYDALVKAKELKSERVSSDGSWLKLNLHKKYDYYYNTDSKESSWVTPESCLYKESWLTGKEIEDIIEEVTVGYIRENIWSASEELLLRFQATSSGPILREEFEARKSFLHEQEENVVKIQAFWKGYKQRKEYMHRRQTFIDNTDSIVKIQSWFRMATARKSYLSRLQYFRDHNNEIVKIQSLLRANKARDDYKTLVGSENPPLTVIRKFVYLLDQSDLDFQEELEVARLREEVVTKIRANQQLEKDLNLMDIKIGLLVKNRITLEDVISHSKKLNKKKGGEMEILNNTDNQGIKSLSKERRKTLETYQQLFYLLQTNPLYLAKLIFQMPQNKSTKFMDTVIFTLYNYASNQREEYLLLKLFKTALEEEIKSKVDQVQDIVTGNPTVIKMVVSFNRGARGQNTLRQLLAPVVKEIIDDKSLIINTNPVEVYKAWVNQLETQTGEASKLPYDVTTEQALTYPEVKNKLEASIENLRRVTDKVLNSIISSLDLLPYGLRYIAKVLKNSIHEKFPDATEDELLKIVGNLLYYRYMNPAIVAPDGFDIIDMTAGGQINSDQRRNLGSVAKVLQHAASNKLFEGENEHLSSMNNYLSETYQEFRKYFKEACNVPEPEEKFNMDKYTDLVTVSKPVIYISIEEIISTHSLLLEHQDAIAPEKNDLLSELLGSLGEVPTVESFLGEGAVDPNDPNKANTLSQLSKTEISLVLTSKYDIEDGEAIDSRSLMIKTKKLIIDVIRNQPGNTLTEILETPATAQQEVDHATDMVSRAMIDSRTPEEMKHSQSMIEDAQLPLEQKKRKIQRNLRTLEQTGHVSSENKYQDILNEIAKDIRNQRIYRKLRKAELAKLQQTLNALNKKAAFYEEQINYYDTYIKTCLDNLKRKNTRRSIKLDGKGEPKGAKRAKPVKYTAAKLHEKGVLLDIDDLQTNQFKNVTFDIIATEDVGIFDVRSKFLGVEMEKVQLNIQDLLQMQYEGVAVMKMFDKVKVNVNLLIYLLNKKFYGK
Chain of SW480 colon carcinoma cells lysate proteins (Homo sapiens, UniProt Q14240) (Q14240 whole entry): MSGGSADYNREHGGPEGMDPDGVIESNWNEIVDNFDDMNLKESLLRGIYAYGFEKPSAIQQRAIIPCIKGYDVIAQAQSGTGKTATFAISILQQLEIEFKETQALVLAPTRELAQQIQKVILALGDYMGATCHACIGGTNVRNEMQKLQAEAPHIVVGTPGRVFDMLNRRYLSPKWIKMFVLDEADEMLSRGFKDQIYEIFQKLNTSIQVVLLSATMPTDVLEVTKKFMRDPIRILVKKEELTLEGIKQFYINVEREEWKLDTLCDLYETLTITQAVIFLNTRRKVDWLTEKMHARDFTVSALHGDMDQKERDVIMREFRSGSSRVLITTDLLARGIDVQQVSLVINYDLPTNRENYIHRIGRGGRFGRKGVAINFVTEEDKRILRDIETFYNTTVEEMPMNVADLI
Chain of SW480 colon carcinoma cells lysate proteins (Homo sapiens, UniProt Q14315) (Q14315 whole entry): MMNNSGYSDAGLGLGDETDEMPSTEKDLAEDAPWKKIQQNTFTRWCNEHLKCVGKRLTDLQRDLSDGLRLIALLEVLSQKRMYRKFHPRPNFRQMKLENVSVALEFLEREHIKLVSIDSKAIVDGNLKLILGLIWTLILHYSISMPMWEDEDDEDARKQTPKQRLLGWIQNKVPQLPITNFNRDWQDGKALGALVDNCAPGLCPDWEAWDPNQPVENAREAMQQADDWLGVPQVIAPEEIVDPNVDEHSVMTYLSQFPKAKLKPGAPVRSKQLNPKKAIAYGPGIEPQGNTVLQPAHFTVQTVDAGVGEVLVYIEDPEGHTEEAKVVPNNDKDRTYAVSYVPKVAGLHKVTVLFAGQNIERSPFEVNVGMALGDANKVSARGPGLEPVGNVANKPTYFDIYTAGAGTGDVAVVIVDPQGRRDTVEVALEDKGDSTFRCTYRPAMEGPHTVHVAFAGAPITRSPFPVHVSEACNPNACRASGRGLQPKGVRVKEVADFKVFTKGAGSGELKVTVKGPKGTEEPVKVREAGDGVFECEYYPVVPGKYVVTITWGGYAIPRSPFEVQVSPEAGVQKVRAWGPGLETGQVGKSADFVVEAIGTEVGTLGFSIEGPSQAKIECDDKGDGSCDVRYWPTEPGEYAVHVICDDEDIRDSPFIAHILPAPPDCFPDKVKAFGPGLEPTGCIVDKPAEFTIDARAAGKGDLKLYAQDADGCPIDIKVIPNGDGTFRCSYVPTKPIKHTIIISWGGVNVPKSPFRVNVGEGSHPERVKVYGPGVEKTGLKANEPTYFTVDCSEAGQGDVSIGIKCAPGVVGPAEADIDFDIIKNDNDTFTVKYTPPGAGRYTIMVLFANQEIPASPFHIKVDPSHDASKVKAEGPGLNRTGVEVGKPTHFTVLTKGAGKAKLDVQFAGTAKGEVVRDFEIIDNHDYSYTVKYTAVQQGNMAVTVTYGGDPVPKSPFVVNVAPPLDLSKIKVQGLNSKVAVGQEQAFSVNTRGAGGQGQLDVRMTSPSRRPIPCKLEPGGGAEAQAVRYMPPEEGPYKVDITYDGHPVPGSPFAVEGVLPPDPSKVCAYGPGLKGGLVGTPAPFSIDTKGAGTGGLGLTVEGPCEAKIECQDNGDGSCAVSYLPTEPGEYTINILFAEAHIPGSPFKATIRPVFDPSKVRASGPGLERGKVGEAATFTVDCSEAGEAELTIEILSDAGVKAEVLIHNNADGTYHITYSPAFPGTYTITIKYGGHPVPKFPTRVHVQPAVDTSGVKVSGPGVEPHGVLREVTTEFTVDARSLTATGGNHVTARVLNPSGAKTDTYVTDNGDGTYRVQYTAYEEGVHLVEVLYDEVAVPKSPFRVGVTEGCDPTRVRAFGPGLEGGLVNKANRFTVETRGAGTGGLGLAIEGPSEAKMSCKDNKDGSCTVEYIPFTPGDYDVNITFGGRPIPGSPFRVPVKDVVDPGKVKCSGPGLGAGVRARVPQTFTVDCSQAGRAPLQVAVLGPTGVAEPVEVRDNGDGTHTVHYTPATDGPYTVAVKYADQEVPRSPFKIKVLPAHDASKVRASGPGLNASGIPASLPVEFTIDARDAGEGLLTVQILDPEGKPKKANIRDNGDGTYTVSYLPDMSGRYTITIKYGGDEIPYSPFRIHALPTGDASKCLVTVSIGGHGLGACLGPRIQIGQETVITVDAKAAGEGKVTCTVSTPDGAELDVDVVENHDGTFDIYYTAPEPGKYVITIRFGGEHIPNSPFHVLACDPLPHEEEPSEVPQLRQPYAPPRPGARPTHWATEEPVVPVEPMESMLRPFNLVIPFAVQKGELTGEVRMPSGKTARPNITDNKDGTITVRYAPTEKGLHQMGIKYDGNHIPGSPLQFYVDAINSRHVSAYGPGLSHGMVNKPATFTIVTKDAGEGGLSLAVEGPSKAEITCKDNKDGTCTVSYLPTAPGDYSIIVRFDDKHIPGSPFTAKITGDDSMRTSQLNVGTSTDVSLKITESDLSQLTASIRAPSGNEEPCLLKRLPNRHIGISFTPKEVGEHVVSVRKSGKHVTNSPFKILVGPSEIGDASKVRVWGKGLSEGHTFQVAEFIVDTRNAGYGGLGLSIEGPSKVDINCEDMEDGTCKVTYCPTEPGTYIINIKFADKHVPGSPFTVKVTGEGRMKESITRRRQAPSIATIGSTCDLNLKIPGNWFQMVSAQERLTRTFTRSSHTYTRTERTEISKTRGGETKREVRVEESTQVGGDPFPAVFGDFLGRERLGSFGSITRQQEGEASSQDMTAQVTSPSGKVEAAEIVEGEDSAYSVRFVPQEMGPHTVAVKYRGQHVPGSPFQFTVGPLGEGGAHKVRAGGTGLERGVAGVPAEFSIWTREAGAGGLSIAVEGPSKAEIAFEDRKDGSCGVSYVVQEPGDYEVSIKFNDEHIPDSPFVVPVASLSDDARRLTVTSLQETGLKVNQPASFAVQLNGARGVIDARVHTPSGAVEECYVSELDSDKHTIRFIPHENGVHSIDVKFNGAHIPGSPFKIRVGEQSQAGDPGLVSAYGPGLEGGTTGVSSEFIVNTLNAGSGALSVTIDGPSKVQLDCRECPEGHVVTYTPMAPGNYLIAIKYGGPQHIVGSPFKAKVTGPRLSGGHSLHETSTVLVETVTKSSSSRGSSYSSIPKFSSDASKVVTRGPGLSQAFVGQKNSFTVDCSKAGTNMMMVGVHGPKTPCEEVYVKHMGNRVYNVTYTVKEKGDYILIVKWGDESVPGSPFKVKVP
Chain of SW480 colon carcinoma cells lysate proteins (Homo sapiens, UniProt P10412) (P10412 whole entry): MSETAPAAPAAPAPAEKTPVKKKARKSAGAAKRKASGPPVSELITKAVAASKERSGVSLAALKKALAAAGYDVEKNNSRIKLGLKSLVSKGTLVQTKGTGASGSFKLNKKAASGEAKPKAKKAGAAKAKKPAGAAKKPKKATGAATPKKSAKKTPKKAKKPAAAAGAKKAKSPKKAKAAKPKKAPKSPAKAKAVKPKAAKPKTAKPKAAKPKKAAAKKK

C[C@H](Oc1cc(-c2cnn(C3CCNCC3)c2)cnc1N)c1c(Cl)ccc(F)c1Cl [(5)-crizotinib]
9: SC.Exp. 1-1 [3] | SC.Exp. 1-2 [3]
4: Sum (SC.Exp.) [1] | Sum (SC.Exp.) [2] | SC.Exp. 1-1 [6] | SC.Exp. 1-2 [6] | SC.Exp. 1-2 [7]
0.2298: AvgP [1]
0.4584: AvgP [3]
3: SC.Exp. 1-2 [2] | SC.Exp. Sum [4]
0: SC.Exp. 1-1 [1] | SC.Exp. 2-1 [1] | SC.Exp. 2-1 [2] | SC.Exp. 2-2 [2] | SC.Exp. 2-1 [3] | SC.Exp. 2-2 [3] | AvgP [4] | SC.Exp. 2-1 [4] | AvgP [5] | SC.Exp. 1-1 [5] | SC.Exp. 1-2 [5] | SC.Exp. 2-1 [5] | SC.Exp. 2-1 [6] | SC.Exp. 2-2 [6] | SC.Exp. 2-1 [7] | SC.Exp. 2-2 [7] | AvgP [8] | SC.Exp. 2-1 [8] | SC.Exp. 2-2 [8]
18: Sum (SC.Exp.) [3]
0.3678: AvgP [7]
1: SC.Exp. 1-1 [2] | SC.Exp. 1-1 [4] | SC.Exp. 1-2 [4] | SC.Exp. 2-2 [4] | SC.Exp. 2-2 [5] | SC.Exp. Sum [5] | SC.Exp. 1-1 [8] | SC.Exp. 1-2 [8]
6: SC.Exp. 1-1 [7]
8: Sum (SC.Exp.) [6]
0.4191: AvgP [6]
2: SC.Exp. 1-2 [1] | SC.Exp. 2-2 [1] | SC.Exp. Sum [8]
10: Sum (SC.Exp.) [7]
0.2093: AvgP [2]
